From patent US8846947B2, “Benzimidazoles and related analogs as sirtuin modulators” (GlaxoSmithKline LLC, priority 2008, dated 2014)

Molecular target: T1, SIRT1 (Homo sapiens, UniProt Q96EB6)
T1 sequence (Q96EB6 1-747): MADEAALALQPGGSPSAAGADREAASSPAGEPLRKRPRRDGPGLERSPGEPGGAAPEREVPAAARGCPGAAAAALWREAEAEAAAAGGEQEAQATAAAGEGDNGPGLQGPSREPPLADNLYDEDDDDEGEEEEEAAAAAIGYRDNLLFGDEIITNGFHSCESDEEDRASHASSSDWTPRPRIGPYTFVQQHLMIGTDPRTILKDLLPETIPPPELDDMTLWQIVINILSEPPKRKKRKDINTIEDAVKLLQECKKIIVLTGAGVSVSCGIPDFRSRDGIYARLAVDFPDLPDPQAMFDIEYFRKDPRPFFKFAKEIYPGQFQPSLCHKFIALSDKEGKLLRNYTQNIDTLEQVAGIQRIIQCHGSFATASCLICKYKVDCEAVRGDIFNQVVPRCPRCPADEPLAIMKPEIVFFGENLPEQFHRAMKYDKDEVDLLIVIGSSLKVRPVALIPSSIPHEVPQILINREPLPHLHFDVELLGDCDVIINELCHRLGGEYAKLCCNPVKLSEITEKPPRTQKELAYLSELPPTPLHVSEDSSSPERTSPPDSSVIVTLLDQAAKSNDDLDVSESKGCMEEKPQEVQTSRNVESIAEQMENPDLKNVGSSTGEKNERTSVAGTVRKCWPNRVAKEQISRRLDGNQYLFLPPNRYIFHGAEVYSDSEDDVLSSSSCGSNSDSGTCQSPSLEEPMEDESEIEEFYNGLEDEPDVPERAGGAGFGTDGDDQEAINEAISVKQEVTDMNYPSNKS
Experiment: Mass spectrometry based SIRT1 deacetylase activation assay (acetylated p53-derived peptide substrate)
Assay type: biochemical
Details: 0.5 μM peptide substrate, 120 μM βNAD+, 10 nM SIRT1, 25 minutes at 25° C.

In the case of `COc1cc(C(=O)Nc2ccccn2)c2nc(-c3ccccc3C(F)(F)F)[nH]c2c1` [Compound 632, 6-methoxy-N-(pyridin-2-yl)-2-(2-(trifluoromethyl)phenyl)-1H-benzo[d]imidazole-4-carboxamide], the EC1.5 is reported as “A (EC1.5<1.0 uM)” and the “Fold Act. (percent maximum fold activation)” value is reported as “A (Fold activation >200%)”.
`COc1cc(C(=O)Nc2nccs2)c2nc(-c3ccccc3C(F)(F)F)[nH]c2c1` [Compound 634] was tested, and the EC1.5 was “A (EC1.5<1.0 uM)” and the “Fold Act. (percent maximum fold activation)” value was “A (Fold activation >200%)”.
In the case of `COc1cc(C(=O)Nc2nccs2)c2nc(-c3ccc(Cl)cc3C(F)(F)F)[nH]c2c1` [Compound 635], the EC1.5 is reported as “A (EC1.5<1.0 uM)” and the “Fold Act. (percent maximum fold activation)” value is reported as “A (Fold activation >200%)”.
For `O=C(Nc1ccccn1)c1cncc2[nH]c(-c3ccccc3C(F)(F)F)nc12` [Compound 636], the EC1.5 was “A (EC1.5<1.0 uM)” and the “Fold Act. (percent maximum fold activation)” value was “A (Fold activation >200%)”.
`O=C(Nc1cccnc1)c1cncc2[nH]c(-c3ccccc3C(F)(F)F)nc12` [Compound 637] was tested, and the EC1.5 was “A (EC1.5<1.0 uM)” and the “Fold Act. (percent maximum fold activation)” value was “A (Fold activation >200%)”.
`O=C(Nc1cccnn1)c1cncc2[nH]c(-c3ccccc3C(F)(F)F)nc12` [Compound 638] was tested, and the EC1.5 was “A (EC1.5<1.0 uM)” and the “Fold Act. (percent maximum fold activation)” value was “A (Fold activation >200%)”.
In the case of `Cc1cnc(NC(=O)c2cncc3[nH]c(-c4ccccc4C(F)(F)F)nc23)s1` [Compound 639], the EC1.5 is reported as “A (EC1.5<1.0 uM)” and the “Fold Act. (percent maximum fold activation)” value is reported as “A (Fold activation >200%)”.
In the case of `O=C(Nc1nccs1)c1cc(N2CCOCC2)cc2[nH]c(-c3ccc(Cl)cc3C(F)(F)F)nc12` [Compound 640], the EC1.5 is reported as “A (EC1.5<1.0 uM)” and the “Fold Act. (percent maximum fold activation)” value is reported as “A (Fold activation >200%)”.
For `O=C(Nc1ccccn1)c1cc(N2CCOCC2)cc2[nH]c(-c3ccc(Cl)cc3C(F)(F)F)nc12` [Compound 641], the EC1.5 was “A (EC1.5<1.0 uM)” and the “Fold Act. (percent maximum fold activation)” value was “A (Fold activation >200%)”.
`O=C(Nc1cccnc1)c1cc(N2CCOCC2)cc2[nH]c(-c3ccc(Cl)cc3C(F)(F)F)nc12` [Compound 642] was tested, and the EC1.5 was “A (EC1.5<1.0 uM)” and the “Fold Act. (percent maximum fold activation)” value was “A (Fold activation >200%)”.
`O=C(Nc1cccnn1)c1cc(N2CCOCC2)cc2[nH]c(-c3ccc(Cl)cc3C(F)(F)F)nc12` [Compound 643] was tested, and the EC1.5 was “A (EC1.5<1.0 uM)” and the “Fold Act. (percent maximum fold activation)” value was “A (Fold activation >200%)”.
`O=C(Nc1nccs1)c1cc(N2CCOCC2)cc2[nH]c(-c3cc(F)ccc3C(F)(F)F)nc12` [Compound 644] was tested, and the EC1.5 was “A (EC1.5<1.0 uM)” and the “Fold Act. (percent maximum fold activation)” value was “A (Fold activation >200%)”.
With `O=C(Nc1ccccn1)c1cc(N2CCOCC2)cc2[nH]c(-c3cc(F)ccc3C(F)(F)F)nc12` [Compound 645] the EC1.5 was “A (EC1.5<1.0 uM)” and the “Fold Act. (percent maximum fold activation)” value was “A (Fold activation >200%)”.
With `O=C(Nc1cccnc1)c1cc(N2CCOCC2)cc2[nH]c(-c3cc(F)ccc3C(F)(F)F)nc12` [Compound 646] the EC1.5 was “A (EC1.5<1.0 uM)” and the “Fold Act. (percent maximum fold activation)” value was “A (Fold activation >200%)”.
`O=C(Nc1cccnn1)c1cc(N2CCOCC2)cc2[nH]c(-c3cc(F)ccc3C(F)(F)F)nc12` [Compound 647] was tested, and the EC1.5 was “A (EC1.5<1.0 uM)” and the “Fold Act. (percent maximum fold activation)” value was “A (Fold activation >200%)”.
`O=C(Nc1nccs1)c1cncc2[nH]c(-c3ccc(Cl)cc3C(F)(F)F)nc12` [Compound 648] was tested, and the EC1.5 was “A (EC1.5<1.0 uM)” and the “Fold Act. (percent maximum fold activation)” value was “A (Fold activation >200%)”.
For `O=C(Nc1ccccn1)c1cncc2[nH]c(-c3ccc(Cl)cc3C(F)(F)F)nc12` [Compound 649], the EC1.5 was “A (EC1.5<1.0 uM)” and the “Fold Act. (percent maximum fold activation)” value was “A (Fold activation >200%)”.
In the case of `O=C(Nc1cccnc1)c1cncc2[nH]c(-c3ccc(Cl)cc3C(F)(F)F)nc12` [Compound 650], the EC1.5 is reported as “A (EC1.5<1.0 uM)” and the “Fold Act. (percent maximum fold activation)” value is reported as “A (Fold activation >200%)”.
In the case of `O=C(Nc1cccnn1)c1cncc2[nH]c(-c3ccc(Cl)cc3C(F)(F)F)nc12` [Compound 651], the EC1.5 is reported as “A (EC1.5<1.0 uM)” and the “Fold Act. (percent maximum fold activation)” value is reported as “A (Fold activation >200%)”.
With `Cc1cnc(NC(=O)c2cncc3[nH]c(-c4ccc(Cl)cc4C(F)(F)F)nc23)s1` [Compound 652] the EC1.5 was “A (EC1.5<1.0 uM)” and the “Fold Act. (percent maximum fold activation)” value was “A (Fold activation >200%)”.
In the case of `O=C(Nc1nccs1)c1cncc2[nH]c(-c3cc(F)ccc3C(F)(F)F)nc12` [Compound 653], the EC1.5 is reported as “B (EC1.5 1-25 uM)” and the “Fold Act. (percent maximum fold activation)” value is reported as “A (Fold activation >200%)”.
In the case of `O=C(Nc1ccccn1)c1cncc2[nH]c(-c3cc(F)ccc3C(F)(F)F)nc12` [Compound 654], the EC1.5 is reported as “B (EC1.5 1-25 uM)” and the “Fold Act. (percent maximum fold activation)” value is reported as “A (Fold activation >200%)”.
`O=C(Nc1cccnc1)c1cncc2[nH]c(-c3cc(F)ccc3C(F)(F)F)nc12` [Compound 655] was tested, and the EC1.5 was “A (EC1.5<1.0 uM)” and the “Fold Act. (percent maximum fold activation)” value was “A (Fold activation >200%)”.
For `O=C(Nc1cccnn1)c1cncc2[nH]c(-c3cc(F)ccc3C(F)(F)F)nc12` [Compound 656], the EC1.5 was “A (EC1.5<1.0 uM)” and the “Fold Act. (percent maximum fold activation)” value was “A (Fold activation >200%)”.
For `Cc1cnc(NC(=O)c2cncc3[nH]c(-c4cc(F)ccc4C(F)(F)F)nc23)s1` [Compound 657], the EC1.5 was “A (EC1.5<1.0 uM)” and the “Fold Act. (percent maximum fold activation)” value was “A (Fold activation >200%)”.
`CS(=O)(=O)c1ccc(F)cc1-c1nc2c(C(=O)Nc3ccccn3)cccc2[nH]1` [Compound 658] was tested, and the EC1.5 was “A (EC1.5<1.0 uM)” and the “Fold Act. (percent maximum fold activation)” value was “A (Fold activation >200%)”.
For `CS(=O)(=O)c1ccc(F)cc1-c1nc2c(C(=O)Nc3cccnc3)cccc2[nH]1` [Compound 659], the EC1.5 was “B (EC1.5 1-25 uM)” and the “Fold Act. (percent maximum fold activation)” value was “A (Fold activation >200%)”.
For `O=C(Nc1cccc(OC2CCNC2)c1)c1cccc2[nH]c(-c3ccc(F)cc3C(F)(F)F)nc12` (stereo not drawn) [Compound 660], the EC1.5 was “A (EC1.5<1.0 uM)” and the “Fold Act. (percent maximum fold activation)” value was “A (Fold activation >200%)”.
For `O=C(Nc1cccc(OC2CCNCC2)c1)c1cccc2[nH]c(-c3ccc(F)cc3C(F)(F)F)nc12` [Compound 661], the EC1.5 was “A (EC1.5<1.0 uM)” and the “Fold Act. (percent maximum fold activation)” value was “A (Fold activation >200%)”.
`C[C@@H]1CN(c2ccc(C(F)(F)F)c(-c3nc4c(C(=O)Nc5nccs5)cccc4[nH]3)c2)C[C@H](C)O1` [Compound 662] was tested, and the EC1.5 was “B (EC1.5 1-25 uM)” and the “Fold Act. (percent maximum fold activation)” value was “A (Fold activation >200%)”.
For `C[C@@H]1CN(c2ccc(C(F)(F)F)c(-c3nc4c(C(=O)Nc5ccccn5)cccc4[nH]3)c2)C[C@H](C)O1` [Compound 663], the EC1.5 was “C (EC1.5 >25 uM)” and the “Fold Act. (percent maximum fold activation)” value was “B (Fold Activation <200%)”.
With `O=C(Nc1nccs1)c1cccc2[nH]c(-c3cc(N4CCCC4)ccc3C(F)(F)F)nc12` [Compound 664] the EC1.5 was “C (EC1.5 >25 uM)” and the “Fold Act. (percent maximum fold activation)” value was “B (Fold Activation <200%)”.
In the case of `O=C(Nc1nccs1)c1cccc2[nH]c(-c3cc(N4CC[C@H](F)C4)ccc3C(F)(F)F)nc12` [Compound 665], the EC1.5 is reported as “A (EC1.5<1.0 uM)” and the “Fold Act. (percent maximum fold activation)” value is reported as “A (Fold activation >200%)”.
In the case of `O=C(Nc1ccccn1)c1cccc2[nH]c(-c3cc(N4CC[C@H](F)C4)ccc3C(F)(F)F)nc12` [Compound 666], the EC1.5 is reported as “B (EC1.5 1-25 uM)” and the “Fold Act. (percent maximum fold activation)” value is reported as “B (Fold Activation <200%)”.
For `O=C(Nc1nccs1)c1cccc2[nH]c(-c3cc(N4CC[C@@H](F)C4)ccc3C(F)(F)F)nc12` [Compound 667], the EC1.5 was “B (EC1.5 1-25 uM)” and the “Fold Act. (percent maximum fold activation)” value was “A (Fold activation >200%)”.
In the case of `O=C(Nc1ccccn1)c1cccc2[nH]c(-c3cc(N4CC[C@@H](F)C4)ccc3C(F)(F)F)nc12` [Compound 668], the EC1.5 is reported as “A (EC1.5<1.0 uM)” and the “Fold Act. (percent maximum fold activation)” value is reported as “B (Fold Activation <200%)”.
`FC(F)(F)c1cc(Cl)ccc1-c1nc2c(NCc3cccnc3)cccc2[nH]1` [Compound 669] was tested, and the EC1.5 was “C (EC1.5 >25 uM)” and the “Fold Act. (percent maximum fold activation)” value was “B (Fold Activation <200%)”.
With `Fc1ccc(C(F)(F)F)c(-c2nc3c(NCc4cccnc4)cccc3[nH]2)c1` [Compound 670] the EC1.5 was “C (EC1.5 >25 uM)” and the “Fold Act. (percent maximum fold activation)” value was “B (Fold Activation <200%)”.
With `c1ccc(-n2nccc2-c2nc3c(NCc4cccnc4)cccc3[nH]2)cc1` [Compound 671] the EC1.5 was “C (EC1.5 >25 uM)” and the “Fold Act. (percent maximum fold activation)” value was “B (Fold Activation <200%)”.
For `O=C(Nc1cccc(CN2CCOCC2)n1)c1cccc2[nH]c(-c3ccccc3C(F)(F)F)nc12` [Compound 672], the EC1.5 was “A (EC1.5<1.0 uM)” and the “Fold Act. (percent maximum fold activation)” value was “A (Fold activation >200%)”.
For `O=C(Nc1ccc(CN2CCOCC2)cn1)c1cccc2[nH]c(-c3ccccc3C(F)(F)F)nc12` [Compound 673], the EC1.5 was “A (EC1.5<1.0 uM)” and the “Fold Act. (percent maximum fold activation)” value was “A (Fold activation >200%)”.
In the case of `O=C(Nc1ccc(CN2CCOCC2)nc1)c1cccc2[nH]c(-c3ccccc3C(F)(F)F)nc12` [Compound 674], the EC1.5 is reported as “A (EC1.5<1.0 uM)” and the “Fold Act. (percent maximum fold activation)” value is reported as “A (Fold activation >200%)”.
